The text below walks through data of patent US20260027073A1, “USE OF SMALL-MOLECULE COMPOUND HAVING NAPHTHYLAMINE STRUCTURE” (HANGZHOU PHECDAMED CO., LTD., priority 2023, published 2026).

Molecules are shown by their SMILES.

Experiment [1] deals with chronic epilepsy mouse model. Put plainly: PTZ chronic epilepsy model. The experiment is classed as in vivo, ICR mice. The conditions noted are these: for seizure grade (Racine grading) / latency in platform jumping (Step-down) experiment / Step-through latency, dark avoidance experiment: 30 mg/kg oral gavage, 21 days; for seizure grade (Racine grading): FIG. 63; for latency in platform jumping (Step-down) experiment: FIG. 64; for Step-through latency, dark avoidance experiment: FIG. 65; for serum IL-1β level / serum TNF-α level: 30 mg/kg, to a certain degree, FIG. 66. Here is the method:
Clean grade 8-10 week old male ICR mice were selected for the preparation of a chronic epilepsy mouse model. They were randomly divided into four groups: normal control group (Control, 0.5% CMC-Na treatment by oral gavage, n=8), model group (Model, 0.5% CMC-Na treatment by oral gavage, n=8), TJ01-013 treatment group (TJ01-013, 30 mg/kg TJ01-013 by oral gavage, n=8), I-14-1 treatment group (I-14-1, 30 mg/kg I-14-1 by oral gavage, n=8). Starting from the first day of the experiment, at 10-11 am every day, mice in all groups except the normal control group were injected intraperitoneally with PTZ 40 mg/kg and the normal control group was injected with the corresponding volume of saline for a total of 21 days. The drug administration treatment was started right after the start of modeling, and the drug was administered once a day for a total of 21 days, and the corresponding tests were performed at the end of the drug administration.
Epileptic seizure grading standard is based on Racine grading: Grade 0, no convulsive response, manifested as normal behavior state; Grade I, facial muscle spasm, manifested as rhythmic chewing, blinking, moving whiskers, etc.; Grade II, neck muscle spasm, manifested as head nodding with or without tail erecting; Grade III, forelimb lifting, clonic or rhythmic twitching; Grade IV, hindlimb tonic or standing tonic; Grade V, generalized clonic, standing tonic and falling down; loss of balance.
The platform jumping experiment is an experimental method designed to utilize the habit of experimental mice to jump down from a high place immediately to explore the surrounding environment. The experimental mice are placed on a high platform, and at the moment of jumping down, they are given electrical stimulation. Then in order to avoid the electric stimulus, the animals will not jump off the platform, while the mice that are not good at learning and memorizing will maintain their habit and jump off the platform. At the end of each round of the experiment, 75% alcohol were sprayed for wiping to avoid odor interference between the mice. The experiment was conducted after the administration, and the experimental device was a cubic box with a (10 cm×10 cm) electric fence at the bottom and a height of 30 cm, with a platform of 3.2 cm in height and 4.2 cm in diameter inside. The experimental steps and procedures of this experiment were divided into: (1) The mice were put into the bottom of the experimental device, which was not energized at this time, so that they were free to explore and adapt to the environment for 10 s. (2) The mice were placed on the high platform inside the experimental device, and the time at which the mice jumped off the high platform was recorded as Initial latency, and were given electrical stimulation (50 Hz, 20 V, 5 s). (3) After 24 h, the mice were placed on the platform again, and the time at which they jumped off the platform was recorded as Step-down latency. The residence time of the mice on the high platform should not exceed 60 s, and the time exceeding 60 s was still recorded as 60 s.
The step through dark avoidance experiment is an experimental method designed to utilize the tendency of mice to move around in dark environments more than in bright environments. The experimental mice are placed in a bright environment of a bright and dark environment connecting device, and then electrically stimulated when they enter the dark environment. Then in order to avoid the electric stimulus, they will move into the light environment, while mice that are not good at learning and memorizing will maintain their habit and enter the dark environment. At the end of each round of the experiment, 75% alcohol were sprayed for wiping to avoid odor interference between mice. This experiment was conducted at the end of the administration. […]

For experiment [2], the system named is Mouse Model of Chemotherapy-Induced POF. Put plainly: Chemotherapy (cyclophosphamide)-induced premature ovarian failure. It counts as in vivo, C57BL/6J mice. The conditions noted are these: for body weight / ovarian coefficient (ratio of ovarian weight to body weight) / ovarian weight: 30 mg/kg oral gavage, FIG. 67; for serum FSH level / serum E2 level / BDNF level in ovarian tissues: 30 mg/kg; for serum FSH level: FIG. 68; for serum E2 level: FIG. 69; for BDNF level in ovarian tissues: FIG. 70; for effect of TJ01-013 compared with I-14-1: b553: ovarian coefficient, b560: FSH concentration, serum E2 level and BDNF level. Here is the method:
Eight-week-old C57BL/6J mice (weighing about 20-25 g) were selected and adaptively fed for 7 d firstly, after which they were randomly divided into three groups according to their body weights, namely, the control group (Control, n=8), the model group (Cy, treated with the solvent 0.5% CMC-Na, n=8), and the TJ01-013 treatment group (Cy+TJ01-013, 30 mg/kg TJ01-013 by oral gavage, n=8). kg TJ01-013, n=8), I-14-1 treatment group (Cy+I-14-1, 30 mg/kg I-14-1 by oral gavage, n=8). The model group and the TJ01-013 treatment group received a single intraperitoneal injection of cyclophosphamide (75 mg/kg, 200-300 μl), and the control group received a single intraperitoneal injection of an equal volume of saline. Samples were collected after 12 days of administration, and body weights, ovary weights, and levels of the serum hormones E2 and FSH of the mice were measured.
The body weight and bilateral ovarian wet weight of each group of mice were weighed with an electronic balance and an analytical balance respectively, and the ovarian organ coefficient of each group was calculated according to the body weight of mice (g) and bilateral ovarian wet weight (mg). The formula is: […]
After the experiment reached the end point, blood was collected from the orbit, and the blood was centrifuged at 12,000 g for 10 min after standing still at room temperature for 45 min, and the supernatant (serum) was taken, and the levels of E2, FSH and BDNF in serum were detected by ELISA.
The mice were euthanized after reaching the end point of the experiment, and the levels of BDNF in the ovarian tissues were assayed by ELISA after the ovaries were extracted and ground.

`O=C(O)C[S+]([O-])c1cc(NS(=O)(=O)c2ccc(Br)cc2)c2ccccc2c1O` (stereo not shown) [I-1]: in experiment [1], the “seizure grade (Racine grading)” value is listed as “significant difference in reducing seizures”; the “latency in platform jumping (Step-down) experiment” value was “increase the Initial latency to a certain degree”; the “Step-through latency, dark avoidance experiment” value is reported as “increase the latency to a certain extent”; the “serum IL-1β level” value is “reduce”. Further, the “serum TNF-α level” value in experiment [1] is “reduce”. For the same compound, the “treatment effect of TJ01-013 compared with I-14-1” value in experiment [1] (both 30 mg/kg, per readout of the block) is “significantly better”. Also, in experiment [2], the body weight result is listed as “no significant change”, the “ovarian coefficient (ratio of ovarian weight to body weight)” value is “significantly elevated”, the ovarian weight entry is given as “significantly elevated” and the “serum FSH level” value was “significantly decreased”. For the same compound, in experiment [2], the “serum E2 level” value is on record as “increased significantly” and the “BDNF level in ovarian tissues” value was “increased significantly”. The “effect of TJ01-013 compared with I-14-1” value in experiment [2] (listed as TJ01-013) is reported as “more effective”. For the same compound, the “effect of TJ01-013 compared with I-14-1” value in experiment [2] (listed as TJ0113) is listed as “better”.

Take `O=C(O)C[S+]([O-])c1cc(NS(=O)(=O)c2ccc(C(F)(F)F)cc2)c2ccccc2c1O` (stereo not shown) [I-14-1]: in experiment [1], the “seizure grade (Racine grading)” value is given as “reduce the seizure grade”; the “latency in platform jumping (Step-down) experiment” value is “increase the Initial latency to a certain degree”; the “Step-through latency, dark avoidance experiment” value is listed as “increase the latency to a certain extent”; the “serum IL-1β level” value is given as “reduce”. Moreover, the “serum TNF-α level” value in experiment [1] is “reduce”. Also, in experiment [2], the body weight result is recorded as “no significant change”, the “ovarian coefficient (ratio of ovarian weight to body weight)” value is recorded as “significantly elevated”, the ovarian weight entry is on record as “significantly elevated” and the “serum FSH level” value is “significantly decreased”. Also, in experiment [2], the “serum E2 level” value is on record as “increased significantly” and the “BDNF level in ovarian tissues” value was “increased significantly”.
